Each structure is given as a SMILES string.

The target in the first data set is T1, hMAO-A (Homo sapiens, UniProt P21397).
T1 construct: purchased Sigma Aldrich; host or cells: baculovirus-infected insect cells (BTI-TN-5B1-4)
T1 sequence (P21397 1-527): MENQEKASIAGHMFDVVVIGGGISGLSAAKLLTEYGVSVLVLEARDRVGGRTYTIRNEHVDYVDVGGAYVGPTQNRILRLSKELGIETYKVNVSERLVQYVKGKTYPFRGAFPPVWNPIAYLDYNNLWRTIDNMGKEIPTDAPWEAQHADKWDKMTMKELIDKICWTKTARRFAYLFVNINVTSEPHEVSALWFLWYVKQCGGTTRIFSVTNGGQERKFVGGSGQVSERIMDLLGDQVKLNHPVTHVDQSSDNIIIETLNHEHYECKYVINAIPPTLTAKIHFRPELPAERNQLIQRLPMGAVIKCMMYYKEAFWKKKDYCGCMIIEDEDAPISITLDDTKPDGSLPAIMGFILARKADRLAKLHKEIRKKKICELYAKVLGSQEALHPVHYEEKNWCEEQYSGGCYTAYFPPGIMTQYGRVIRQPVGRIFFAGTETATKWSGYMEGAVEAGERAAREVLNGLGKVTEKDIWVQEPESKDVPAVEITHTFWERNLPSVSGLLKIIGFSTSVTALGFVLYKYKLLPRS
As to the kind of experiment: hMAO-A inhibition, HRP–Amplex Red coupled fluorimetric assay. The class given is biochemical. As to conditions: supplement csv; RA at 100 micromolar.
With `C#CCN1CCC(/C=C/c2ccc(Br)cc2)CC1` [Compound 81, (E)-4-(4-Bromostyryl)-1-(prop-2-yn-1-yl)piperidine], the “IC50(MAO-A) class” value is “na (na-not_active(RA_at_100micromolar>50%))”. Consider `C#CCN1CCC(/C=C/c2ccc(C)cc2)CC1` [Compound 76, (E)-4-(4-Methylstyryl)-1-(prop-2-yn-1-yl)piperidine], for which the “IC50(MAO-A) class” value is recorded as “na (na-not_active(RA_at_100micromolar>50%))”.

In the case of `C#CCN1CCCC(CCc2ccc(F)cc2)C1` (racemic) [Compound 23, (±)-3-(4-Fluorophenethyl)-1-(prop-2-yn-1-yl)piperidine], the “IC50(MAO-A) class” value was “na (na-not_active(RA_at_100micromolar>50%))”. Still for that read-out and setting: the same measure for `C#CCN1CCC(/C=C\c2ccc(C(F)(F)F)cc2)CC1` [Compound 83, (Z)-1-(Prop-2-yn-1-yl)-4-(4-(trifluoromethyl)styryl)piperidine]: “na (na-not_active(RA_at_100micromolar>50%))”. On the same count and under the same terms, the same measure for `C#CCN1CCCC(CCc2cc(F)c(F)cc2F)C1` (racemic) [Compound 24, (±)-3-(2,4,5-Trifluorophenethyl)-1-(prop-2-yn-1-yl)piperidine]: “na (na-not_active(RA_at_100micromolar>50%))”; for `C#CCN1CCCC(/C=C/c2ccc(F)cc2)C1` (racemic) [Compound 19, (±)-(E)-3-(4-Fluorostyryl)-1-(prop-2-yn-1-yl)piperidine]: “na (na-not_active(RA_at_100micromolar>50%))”. The same measure, in the same setting: the same measure for `C#CCN1CCC(CCc2cccc(C(F)(F)F)c2)CC1` [Compound 101, 1-(Prop-2-yn-1-yl)-4-(3-(trifluoromethyl)phenethyl)piperidine]: “na (na-not_active(RA_at_100micromolar>50%))”; for `C#CCN1CCC(/C=C/c2ccc(OC)cc2)CC1` [Compound 82, (E)-4-(4-Methoxystyryl)-1-(prop-2-yn-1-yl)piperidine]: “na (na-not_active(RA_at_100micromolar>50%))”; for `C#CCN1CCC(CCc2cc(F)c(F)cc2F)CC1` [Compound 26, 1-(Prop-2-yn-1-yl)-4-(2,4,5-trifluorophenethyl)piperidine]: “na (na-not_active(RA_at_100micromolar>50%))”. Turning to `C#CCN1CCC(/C=C\c2ccc(C(N)=O)cc2)CC1` [Compound 104, (Z)-4-(2-(1-(Prop-2-yn-1-yl)piperidin-4-yl)vinyl)benzamide], the “IC50(MAO-A) class” value is on record as “na (na-not_active(RA_at_100micromolar>50%))”.

As to `C#CCN1CCC(CCc2ccc(C(N)=O)cc2)CC1` [Compound 106, 4-(2-(1-(Prop-2-yn-1-yl)piperidin-4-yl)ethyl)benzamide], the “IC50(MAO-A) class” value is recorded as “na (na-not_active(RA_at_100micromolar>50%))”. For the molecule `C#CCN1CCC(CCc2ccc(C)cc2)CC1` [Compound 96, 4-(4-Methylphenethyl)-1-(prop-2-yn-1-yl)piperidine], the “IC50(MAO-A) class” value was “na (na-not_active(RA_at_100micromolar>50%))”. As to `C#CCN1CCC(CCc2ccc(F)cc2)CC1` [Compound 25, 4-(4-Fluorophenethyl)-1-(prop-2-yn-1-yl)piperidine], the “IC50(MAO-A) class” value is “na (na-not_active(RA_at_100micromolar>50%))”. Same read-out and setting: the same measure for `C#CCN1CCCC(/C=C/c2cc(F)c(F)cc2F)C1` (racemic) [Compound 20, (±)-(E)-1-(Prop-2-yn-1-yl)-3-(2,4,5-trifluorostyryl)piperidine]: “na (na-not_active(RA_at_100micromolar>50%))”.

As for `C#CCN1CCC(CCc2ccc(Cl)cc2)CC1` [Compound 98, 4-(4-Chlorophenethyl)-1-(prop-2-yn-1-yl)piperidine], the “IC50(MAO-A) class” value is recorded as “na (na-not_active(RA_at_100micromolar>50%))”. As for `C#CCN1CCC(CCc2ccc(O)cc2)CC1` [Compound 107, 4-(2-(1-(Prop-2-yn-1-yl)piperidin-4-yl)ethyl)phenol], the “IC50(MAO-A) class” value was “na (na-not_active(RA_at_100micromolar>50%))”. Take `C#CCN1CCC(CCc2ccc(OC)cc2)CC1` [Compound 99, 4-(4-Methoxyphenethyl)-1-(prop-2-yn-1-yl)piperidine]: the “IC50(MAO-A) class” value is reported as “na (na-not_active(RA_at_100micromolar>50%))”. `C#CCN1CCC(/C=C/c2ccc(C(N)=O)cc2)CC1` [Compound 105, (E)-4-(2-(1-(Prop-2-yn-1-yl)piperidin-4-yl)vinyl)benzamide]: the “IC50(MAO-A) class” value is on record as “na (na-not_active(RA_at_100micromolar>50%))”. Still for that read-out and setting: the same measure for `C#CCN1CCC(/C=C\c2ccc(C)cc2)CC1` [Compound 75, (Z)-4-(4-Methylstyryl)-1-(prop-2-yn-1-yl)piperidine]: “na (na-not_active(RA_at_100micromolar>50%))”. Still for that read-out and setting: under `C#CCN1CCC(/C=C\c2ccc(S(C)(=O)=O)cc2)CC1` [Compound 89, (Z)-4-(4-(Methylsulfonyl)styryl)-1-(prop-2-yn-1-yl)piperidine] stands “na (na-not_active(RA_at_100micromolar>50%))”. Same read-out and setting: the same measure for `C#CCN1CCC(/C=C/c2ccc(S(C)(=O)=O)cc2)CC1` [Compound 90, (E)-4-(4-(Methylsulfonyl)styryl)-1-(prop-2-yn-1-yl)piperidine]: “na (na-not_active(RA_at_100micromolar>50%))”.

Tested on in a further data set: not listed separately
As to the kind of experiment: Thermodynamic solubility in PBS. In kind it is physicochemical. Particulars: PBS (pH 7.4), 37 °C, 24 h, hydrochloride salts.
Regarding `C#CCN1CCC(CCc2ccc(C(C)C)cc2)CC1` [Compound 97, 4-(4-Isopropylphenethyl)-1-(prop-2-yn-1-yl)piperidine], the thermodynamic solubility is reported as not below 14.5 g/250 mL.

Another data set deals with T2, 5-HT1A receptor (Rattus norvegicus, UniProt P19327).
T2 construct: from tissue; host or cells: rat (male Wistar) brain cortex membranes
T2 sequence (P19327 1-422): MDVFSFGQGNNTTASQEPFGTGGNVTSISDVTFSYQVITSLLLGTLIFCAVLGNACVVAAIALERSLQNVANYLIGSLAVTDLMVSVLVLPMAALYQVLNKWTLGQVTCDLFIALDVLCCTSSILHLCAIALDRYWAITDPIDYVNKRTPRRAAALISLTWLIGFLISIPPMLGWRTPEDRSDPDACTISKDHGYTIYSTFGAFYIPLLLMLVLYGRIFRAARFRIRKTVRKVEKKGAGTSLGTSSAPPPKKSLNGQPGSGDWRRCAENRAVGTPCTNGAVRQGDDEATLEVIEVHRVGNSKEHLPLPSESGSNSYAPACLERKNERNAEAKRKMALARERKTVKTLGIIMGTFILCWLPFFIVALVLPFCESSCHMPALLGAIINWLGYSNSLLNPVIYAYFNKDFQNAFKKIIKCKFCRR
Nature of the data set: [3H]-8-OH-DPAT radioligand binding assay, rat cortex membranes. Particulars: [3H]-8-OH-DPAT binding, means ±SEM.
A word on the Ki: it is the dissociation constant of the complex between target and ligand, obtained from inhibition or displacement. High values mean a looser hold on the target, low ones a stronger hold on the target. `C#CCN1CCC(CCc2ccc(C#N)cc2)CC1` [Compound 102, 4-(2-(1-(Prop-2-yn-1-yl)piperidin-4-yl)ethyl)benzonitrile] had a Ki of 8.6 ± 1.7 µM.

The same data set, now with this note: read-out: Inhibition at 300 µM.
The term inhibition denotes the relative decrease from the control value, in per cent. For `C#CCN1CCC(CCc2ccc(C#N)cc2)CC1` [Compound 102, 4-(2-(1-(Prop-2-yn-1-yl)piperidin-4-yl)ethyl)benzonitrile], the inhibition at 300 µM amounted to 78%.

Another data set relates to Swiss mice. Nature of the data set: Elevated plus maze test. The class given is in vivo, mouse. Particulars: acute ip, 1 mg/kg.
For the molecule `CN1C(=O)CN=C(c2ccccc2)c2cc(Cl)ccc21` [Diazepam, reference compound], the “Open arm entries (%)” value is on record as 29.9 ±3.2%, the “Time in centre (%)” value was 37.6 ±5.8%, the “Time in open arms (%)” value was found to be 22.3 ±3.1% and the Total arm entries is recorded as 36.0 ±3.2.

Another data set relates to SH-SY5Y cells. As to the kind of experiment: MTS cytotoxicity assay. As to conditions: 24 h, 5 μM and 10 μM.
For `C#CCN1CCC(CCc2ccc(C(C)C)cc2)CC1` [Compound 97, 4-(4-Isopropylphenethyl)-1-(prop-2-yn-1-yl)piperidine], the cytotoxic effects entry is “no significant cytotoxic effects”.

Take `C#CCN1CCC(/C=C/c2ccc(F)cc2)CC1` [Compound 1, (E)-4-(4-Fluorostyryl)-1-(prop-2-yn-1-yl)piperidine]: the cytotoxic effects entry was “no significant cytotoxic effects”.

On to `C#CCN1CCC(CCc2ccc(C#N)cc2)CC1` [Compound 102, 4-(2-(1-(Prop-2-yn-1-yl)piperidin-4-yl)ethyl)benzonitrile], for which the cytotoxic effects result is “no significant cytotoxic effects”.

(Values after PMC7307930, “Stereoselective Activity of 1-Propargyl-4-styrylpiperidine-like Analogues That Can Discriminate between Monoamine Oxidase Isoforms A and B” (Journal of Medicinal Chemistry, 2020).)
